Reference: US20250144047A1, “PHARMACEUTICAL COMPOSITION FOR PREVENTING, AMELIORATING, OR TREATING CANCER CONTAINING 8-PARADOL” (KDBIO CORP., priority 2022, published 2025)

Key:
AGS cells [1] = assay: ATP fluorescence assay in AGS cells; assay type: cell-based, human
From the text: The ATP degree of the sample-processed AGS cells were detected according to the manufacturer's instructions by using an ATP fluorescence assay kit (Biovision, Milpitas, CA, USA).

[2] = set-up: species or system mice; details: mouse, in vivo, po
Description: (§1) Male nude mice (CAnN.Cg-Foxn1-nu, 4 weeks old, 20 g to 22 g) were purchased from OrientBio (Seongnam, Republic of Korea). The mice were placed in a chamber with conditions maintained at 23° C. and 50% humidity with a period of 12 hours of light and 12 hours of darkness. All animal experiments were conducted according to the National Institutes of Health's Laboratory Animal Care and Use Guidelines (NIH Publications No. 8023, revised 1996) and the Kyung Hee University's Animal Care and Use Guidelines ([…]-441, approval data: Sep. 28, 2021). […] The control group was administered with only 0.9% of general saline during this period. Body weights and tumor volumes of the mice were measured daily in all mice during the study period. All mice were euthanized after the end of the experiments. Blood, liver, spleen, kidney, and tumor tissues were extracted and weighed. In order to obtain the protein of tumor tissue, a portion of the tissue was processed with RIPA buffer containing a protease inhibitor cocktail. Then, the expression degree of a specific protein (determined by Western blot) was determined.

AGS cells [3] = assay: Mito-tracker, ROS and Mito-SOX staining; assay type: cell-based, human
Description: AGS cells (1×10^5 cells) were processed with the sample for 24 hours and then stained with a mitochondrial mito-tracker green kit (Thermo Fisher Scientific, Rockford, IL, USA). The stained cells were observed using the Leica DM IRB fluorescence microscope.
AGS cells were cultured at a density of 1×10^5 cells for 24 hours. After the sample were processed with the cultured cells, intracellular oxidative stress and superoxide were confirmed by a cell ROS/superoxide detection assay kit (Abcam, Cambridge, MA, USA). The degree of fluorescence was evaluated using the Leica DM IRB fluorescence microscope.

AGS cells [4] = assay: Colony formation assay of AGS cells; assay type: cell-based, human; details: 5-FU positive control
Description: Live/dead cells were stained using a live/dead cell staining kit (Thermo Fisher Scientific, Rockford, IL, USA). Specifically, apoptosis was induced by processing AGS cells (2×10^5 cells/well) as a sample for 24 hours. After staining the cells for 30 minutes using the staining kit, the cells were observed using a Leica DM IRB fluorescence microscope (Wetzlar, Germany). In addition, for the colony formation assay, AGS cells were cultured at a density of 500 cells/well and then processed with the sample. Then, the cells were stained with 0.5% crystal violet (Sigma-Aldrich, St. Louis, MO, USA) for 15 minutes […], and then the stained colonies were observed and quantified using ImageJ.

AGS cells [5] = assay: LC3 immunofluorescence staining; assay type: cell-based, human
Description: AGS cells (1×10^5 cells) were cultured on 6-well plates and processed with samples for 24 hours. For cell fixation and permeation, 4% paraformaldehyde and 0.1% Triton X-100 were used, respectively. After blocking with 2% BSA for 1 hour, the cells were incubated with primary antibodies on LC3 for 3 hours at 25° C. Then, the cells were incubated with fluorescein isothiocyanate (FITC)-conjugated secondary antibodies (Abcam, Cambridge, MA, USA) for 30 minutes. Finally, fluorescence was captured and analyzed using the Leica fluorescence microscope and ImageJ software.

RAW 264.7 cells = assay type: cell-based
Description: AGS cells were grown in RPMI medium containing 10% FBS and 1% PS. HEK293 and RAW264.7 cells were grown in DMEM medium containing 10% FBS and 1% PS under conditions of 37° C., 5% CO2 and 95% air.
In order to evaluate toxicity to each cell, the sample was incubated in each cell (1×10^5 cells/well) cultured in the above manner for 24 hours, and then cytotoxicity to each cell was examined by using the MTT assay.

AGS xenografts = assay: Tumor size in AGS-xenograft mice; assay type: in vivo
Description: as §1

[6] = test system: AGS xenograft tumor tissue; assay: IHC staining of tumor tissue; assay type: in vivo; details: tumor tissue of administered mice
Description: The tumor tissue was fixed with 10% formalin and embedded with paraffin. Immunohistochemical (IHC) staining was performed using a mouse and rabbit-specific HRP/DAB (ABC) detection IHC kit (Abcam, Cambridge, MA, USA). The tissue was observed through an optical microscope, and the presence of a specific protein in the tumor tissue was determined to be the presence of a brown yellow color. The results were evaluated using ImageJ software.

AGS cells [7] = assay: Hoechst33258 and PI staining; assay type: cell-based, human
Description: AGS cells (1×10^5 cells) were seeded and maintained for 24 hours. In order to evaluate the percentage of apoptotic cells, Hoechst33258 or PI (Thermo Fisher Scientific, Rockford, IL, USA) was added to the AGS cells processed with the sample. After 30 minutes, the cells were observed using the fluorescence microscope (Leica DM IRB).

[8] = test system: AGS xenograft tumor tissue; assay: Western blot of tumor tissue of xenograft mice; assay type: in vivo
Description: For whole protein extraction, AGS cells were processed with samples at various concentrations for 24 hours. The cells were dissolved using Pierce™ RIPA buffer (Thermo Fisher Scientific, Rockford, IL, USA) together with protease inhibitor cocktail (GenDEPOT, TX, USA). The cell-dissolved solution formed in the above manner was centrifuged at 12,000 rpm for 20 minutes. The protein was loaded into a 10% SDS-PAGE gel using a protein gel electrophoresis chamber system and transferred to a PVDF membrane (Thermo Fisher Scientific, Rockford, IL, USA). A PBST solution containing 5% skim milk was used to block the membrane at 25° C. for 1 hour. Then, the membrane was incubated overnight at 4° C. with primary antibodies. Finally, the membrane was incubated with the secondary antibodies at 25° C. for 1 hour, and a protein band was detected using West-Q Pico ECL Solution (GenDEPOT, TX, USA). The results were quantified using ImageJ software.
Each mouse was orally administered with 8-paradol and 5-FU once a day for a total of 16 days. The control group was administered with only 0.9% of general saline during this period. Body weights and tumor volumes of the mice were measured daily in all mice during the study period. All mice were euthanized after the end of the experiments. Blood, liver, spleen, kidney, and tumor tissues were extracted and weighed. In order to obtain the protein of tumor tissue, a portion of the tissue was processed with RIPA buffer containing a protease inhibitor cocktail. Then, the expression degree of a specific protein (determined by Western blot) was determined.

[9] = 8-paradol in combination with CQ, compared to 8-paradol solely
[10] = 8-paradol-H 8 mg/kg oral 16 days

Q: Which “ATP loss induced by 8-paradol” value (AGS cells [1]; 8-paradol with CQ (inhibiting mitophagy)) does the source give for `CCCCCCCCCC(=O)CCc1ccc(O)c(OC)c1` [Purified Compound 3, 8-paradol] here?
A: The value was “reduced”.

Q: And the “ATP concentration in AGS cells” value (AGS cells [1]; AGS cells)?
A: Its value is “reduced”.

Q: And the “liver and kidney indices versus Con-T group” value [2]?
A: The value was “did not exhibit a significant difference”.

Q: And the body weight ([2]; 8 mg/kg)?
A: The body weight was 19.5 g.

Q: And the Mito-SOX (AGS cells [3]; [9])?
A: The Mito-SOX was “partially reduced”.

Q: And the segmented mitochondria (AGS cells [3]; [9])?
A: The segmented mitochondria was “reduced”.

Q: What about the “ROS and Mito-SOX production” value (AGS cells [3]; AGS cells) of the same compound?
A: The value was “overproduction”.

Q: And the “mitochondrial morphology (Mito-tracker)” value (AGS cells [3]; AGS cells, 24 hours)?
A: The value was “damaged and fragmented mitochondrial morphology”.

Q: And the “colony formation ability compared with 5-FU-processed AGS cells” value (AGS cells [4])?
A: The value was “significantly inhibited”.

Q: And the “endogenous LC3 spots” value (AGS cells [5])?
A: Its value is “increase”.

Q: And the “cytotoxicity to normal cells RAW 264.7” value (RAW 264.7 cells)?
A: Its value is “did not express significant cytotoxicity”.

Q: What about the “size and weight of the tumor compared to Con-T” value (AGS xenografts; [10]) of the same compound?
A: Its value is “significantly reduced”.

Q: And the “size, weight, and volume of the tumor compared to the 5-FU group” value (AGS xenografts; [10])?
A: The value was “further reduced”.

Q: And the “size of the tumor compared to Con-T” value (AGS xenografts; 8-paradol-M 4 mg/kg oral 16 days)?
A: The value was “significantly reduced”.

Q: What about the “density of LC3 and caspase-3 in tumor tissue” value [6] of the same compound?
A: The value was “increased”.

Q: What about the “number of apoptotic cells (Hoechst and PI staining)” value (AGS cells [7]; 8-paradol and CQ together, compared to 8-paradol solely) of the same compound?
A: Its value is “significantly reduced”.

Q: What about the “fragmentation of nuclei and fluorescence of the condensate (Hoechst staining)” value (AGS cells [7]; AGS cells) of the same compound?
A: The value was “became stronger in a dose-dependent manner”.

Q: What about the “number of killed cells (PI staining)” value (AGS cells [7]; AGS cells, compared with control group) of the same compound?
A: Its value is “increased the number of killed cells”.

Q: And the “expression degrees of p62 and Bcl-2 proteins” value ([8]; tumor tissue)?
A: Its value is “significantly decreased”.

Q: What about the “mitophagy-related proteins LC3, Pink1 and Parkin in tumor tissue” value ([8]; tumor tissue of processed mice) of the same compound?
A: Its value is “significantly increased in a dose-dependent manner”.

Q: And the “apoptosis-related proteins Bax, Cytochrome-c, Cleaved-caspase-3/caspase-3 and Cleaved-caspase-9/caspase-9” value ([8]; tumor tissue, compared to control group)?
A: The value was “significantly increased”.
